# Experimental data from ChEMBL document CHEMBL3044805, “A comparative study of the efficiency of several sources of induced resistance to powdery mildew (Blumeria graminis f. sp. tritici) in wheat under field conditions” (2009).
# Legend:
# Triticum aestivum [1] = experiment: (§1) Induction of systemic acquired resistance against Blumeria graminis f. sp. tritici in Triticum aestivum (wheat) plants on Kanzler cultivar assessed as decrease in disease severity of powdery mildew in leaves […] (wheat) exposed to 1.2 mM compound for 3 years by small-plot experiment relative to control; format: functional; set-up: scale not given: the % may be the effect or the level left
# Triticum aestivum [2] = experiment: as §1, with “0.3 M” for “1.2 mM”; format: functional; set-up: scale not given: the % may be the effect or the level left
Compound,Activity (Triticum aestivum [1]) [%],Activity (Triticum aestivum [2]) [%]
CSC(=O)c1cccc2nnsc12 [ACIBENZOLAR-S-METHYL],14.5,
C[N+](C)(C)CC(=O)O [BETAINE],,31.8
